# Test results taken from ChEMBL document CHEMBL2203018, “Tyrosine urea muscarinic acetylcholine receptor antagonists: achiral quaternary ammonium groups” (Bioorg Med Chem Lett, 2012).
# How the values were obtained:
# [1] = target: Muscarinic acetylcholine receptor M3 (Homo sapiens, UniProt P20309); assay: Antagonist activity at human muscarinic M3 receptor expressed in CHO cells assessed as inhibition of acetylcholine-induced calcium mobilization by FLIPR assay; assay type: functional, cell-based
# Muscarinic acetylcholine receptor M3, sequence (P20309 whole entry): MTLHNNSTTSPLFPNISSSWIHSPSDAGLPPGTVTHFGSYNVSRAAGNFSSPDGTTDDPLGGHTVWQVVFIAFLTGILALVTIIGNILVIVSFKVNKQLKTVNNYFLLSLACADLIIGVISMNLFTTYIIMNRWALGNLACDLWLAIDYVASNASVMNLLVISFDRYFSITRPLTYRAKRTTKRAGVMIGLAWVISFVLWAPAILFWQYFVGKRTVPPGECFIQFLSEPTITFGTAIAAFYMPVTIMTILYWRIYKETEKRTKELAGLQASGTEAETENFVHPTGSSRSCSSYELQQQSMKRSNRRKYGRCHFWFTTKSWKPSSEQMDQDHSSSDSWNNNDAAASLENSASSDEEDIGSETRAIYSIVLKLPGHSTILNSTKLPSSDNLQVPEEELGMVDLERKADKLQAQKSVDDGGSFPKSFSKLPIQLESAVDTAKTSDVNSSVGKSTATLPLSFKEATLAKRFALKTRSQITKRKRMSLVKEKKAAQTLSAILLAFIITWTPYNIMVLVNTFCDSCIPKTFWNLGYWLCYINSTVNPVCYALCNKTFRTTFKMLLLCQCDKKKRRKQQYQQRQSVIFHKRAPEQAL
# [2] = target: T1, Muscarinic acetylcholine receptor M2 (Homo sapiens, UniProt P08172); assay: Antagonist activity at human muscarinic M2 receptor expressed in CHO cells assessed as inhibition of acetylcholine-induced calcium mobilization by FLIPR assay; assay type: functional, cell-based
# T1 sequence (P08172 whole entry): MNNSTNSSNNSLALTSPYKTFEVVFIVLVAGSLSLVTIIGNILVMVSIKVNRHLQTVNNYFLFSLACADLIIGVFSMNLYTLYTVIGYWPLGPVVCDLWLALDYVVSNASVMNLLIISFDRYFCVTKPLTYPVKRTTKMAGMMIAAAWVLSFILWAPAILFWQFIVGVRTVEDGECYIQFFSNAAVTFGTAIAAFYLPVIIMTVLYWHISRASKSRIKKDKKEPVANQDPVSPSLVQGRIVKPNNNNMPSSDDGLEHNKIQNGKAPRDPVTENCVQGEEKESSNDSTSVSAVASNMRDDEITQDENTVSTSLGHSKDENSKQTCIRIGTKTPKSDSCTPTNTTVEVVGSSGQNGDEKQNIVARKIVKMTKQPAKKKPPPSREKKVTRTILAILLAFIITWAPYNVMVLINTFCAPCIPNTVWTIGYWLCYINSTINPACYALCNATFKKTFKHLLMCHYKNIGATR
# [3] = target: T2, Muscarinic acetylcholine receptor M1 (Homo sapiens, UniProt P11229); assay: Antagonist activity at human muscarinic M1 receptor expressed in CHO cells assessed as inhibition of acetylcholine-induced calcium mobilization by FLIPR assay; assay type: functional, cell-based
# T2 sequence (P11229 whole entry): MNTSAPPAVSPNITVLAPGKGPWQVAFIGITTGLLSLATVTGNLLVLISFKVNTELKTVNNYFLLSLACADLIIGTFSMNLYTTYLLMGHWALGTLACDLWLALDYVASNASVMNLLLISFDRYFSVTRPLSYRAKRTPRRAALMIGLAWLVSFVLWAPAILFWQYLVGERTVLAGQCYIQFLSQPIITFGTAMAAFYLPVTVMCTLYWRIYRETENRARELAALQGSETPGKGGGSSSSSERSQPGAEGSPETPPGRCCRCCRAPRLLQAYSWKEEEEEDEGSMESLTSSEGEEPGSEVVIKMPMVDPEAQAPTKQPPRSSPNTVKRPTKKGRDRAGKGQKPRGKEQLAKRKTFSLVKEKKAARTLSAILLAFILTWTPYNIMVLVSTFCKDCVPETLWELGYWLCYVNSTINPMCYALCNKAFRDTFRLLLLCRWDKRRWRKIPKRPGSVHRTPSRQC
# Mus musculus [4] = assay: Inhibition of methacholine-induced bronchoconstriction in Balb/c mouse at 5 ug administered intranasally after 24 hrs; assay type: functional
# Mus musculus [5] = assay: Inhibition of methacholine-induced bronchoconstriction in Balb/c mouse at 5 ug administered intranasally after 5 hrs; assay type: functional
# Mus musculus [6] = assay: Inhibition of methacholine-induced bronchoconstriction in Balb/c mouse at 5 ug administered intranasally after 48 hrs; assay type: functional
IC50 [1],IC50 [2],IC50 [3],SMILES,inhibition (INH) (Mus musculus [4]),inhibition (INH) (Mus musculus [5]),inhibition (INH) (Mus musculus [6])
< 5 nM,< 5 nM,< 5 nM,Cc1c[n+]2cc(CNC(=O)[C@H](Cc3ccc(O)cc3)NC(=O)Nc3ccc(C(=O)OC(C)C)cc3)n(C)c2s1,,,
27.5 nM,97.9 nM,893 nM,CC(C)OC(=O)c1ccc(NC(=O)N[C@@H](Cc2ccc(O)cc2)C(=O)N2CC[N+](Cc3ccc(Cl)cc3)(C(C)C)CC2)cc1,,,
50.2 nM,191 nM,2500 nM,CC(C)OC(=O)c1ccc(NC(=O)N[C@@H](Cc2ccc(O)cc2)C(=O)N2CC[N+](C)(CC3CCCCC3)CC2)cc1,,,
< 5 nM,87.6 nM,476 nM,CC(C)OC(=O)c1ccc(NC(=O)N[C@@H](Cc2ccc(O)cc2)C(=O)NCC(C)(C)C[N+](C)(C)Cc2ccc(Cl)cc2)cc1,,,
143 nM,549 nM,1430 nM,CC(C)OC(=O)c1ccc(NC(=O)N[C@@H](Cc2ccc(O)cc2)C(=O)NCC[N+](C)(C)Cc2ccc(Cl)cc2)cc1,,,
68.9 nM,94.6 nM,882 nM,CC(C)OC(=O)c1ccc(NC(=O)N[C@@H](Cc2ccc(O)cc2)C(=O)N2CCC([N+]3(Cc4ccc(Cl)cc4)CCCC3)CC2)cc1,,,
392 nM,999 nM,> 3300 nM,CC(C)OC(=O)c1ccc(NC(=O)N[C@@H](Cc2ccc(O)cc2)C(=O)N(C)Cc2n(C)cc[n+]2Cc2ccc(Cl)cc2)cc1,,,
10.2 nM,427 nM,> 3300 nM,CC(C)OC(=O)c1ccc(NC(=O)N[C@@H](Cc2ccc(O)cc2)C(=O)N2CC[N+](C)(Cc3ccc4c(c3)OCO4)CC2)cc1,,,
< 5 nM,< 5 nM,< 5 nM,Cc1csc2n(C)c(CNC(=O)[C@H](Cc3ccc(O)cc3)NC(=O)Nc3ccc(C(=O)OC(C)C)cc3)c[n+]12,,,
,,,Cc1c[n+]2cc(CNC(=O)[C@H](Cc3ccc(O)cc3)NC(=O)Nc3ccc(C(=O)OC(C)C)cc3)n(Cc3ccc(C(F)(F)F)cc3)c2s1.O=C([O-])C(F)(F)F,12%,89%,
579 nM,556 nM,> 3300 nM,CC[N+]1(C2CCN(C(=O)[C@H](Cc3ccc(O)cc3)NC(=O)Nc3ccc(C(=O)OC(C)C)cc3)CC2)CCCC1,,,
> 3300 nM,> 3300 nM,> 3300 nM,CC(C)OC(=O)c1ccc(NC(=O)N[C@@H](Cc2ccc(O)cc2)C(=O)N(CC[N+](C)(C)C)Cc2ccccc2)cc1,,,
< 5 nM,41.2 nM,462 nM,CC(C)OC(=O)c1ccc(NC(=O)N[C@@H](Cc2ccc(O)cc2)C(=O)N2CC[N+](Cc3ccc(Cl)cc3)(CC3CCc4ccccc4C3)CC2)cc1 (some centres undefined),,,
51.9 nM,181 nM,327 nM,CC(C)OC(=O)c1ccc(NC(=O)N[C@@H](Cc2ccc(O)cc2)C(=O)NCc2n(Cc3ccc(Cl)cc3)cc[n+]2Cc2ccc(Cl)cc2)cc1,,,
45.3 nM,105 nM,1120 nM,CC(C)OC(=O)c1ccc(NC(=O)N[C@@H](Cc2ccc(O)cc2)C(=O)N2CCC[C@H]([N+](C)(C)Cc3ccc(Cl)cc3)C2)cc1,,,
159 nM,328 nM,> 3300 nM,CC(C)OC(=O)c1ccc(NC(=O)N[C@@H](Cc2ccc(O)cc2)C(=O)NCC[N+]2(C)CCCCCC2)cc1,,,
44.9 nM,108 nM,418 nM,CC(C)OC(=O)c1ccc(NC(=O)N[C@@H](Cc2ccc(O)cc2)C(=O)NCC[N+]2(Cc3ccc(Cl)cc3)CCCC2)cc1,,,
,,,CC(C)OC(=O)c1ccc(NC(=O)N[C@@H](Cc2ccc(O)cc2)C(=O)N[C@H]2CCC[N+](C)(Cc3ccc(Cl)cc3)C2)cc1 (some centres undefined),38%,94%,0%
> 3300 nM,> 3300 nM,> 3300 nM,CC(C)OC(=O)c1ccc(NC(=O)N[C@@H](Cc2ccc(O)cc2)C(=O)N(C)Cc2n(C)cc[n+]2C)cc1,,,
< 5 nM,< 5 nM,< 5 nM,Cc1csc2n(Cc3ccc(Cl)cc3)c(CNC(=O)[C@H](Cc3ccc(O)cc3)NC(=O)Nc3ccc(C(=O)OC(C)C)cc3)c[n+]12,,,
,,,Cc1cn2cc(CNC(=O)[C@H](Cc3ccc(O)cc3)NC(=O)Nc3ccc(C(=O)OC(C)C)cc3)[n+](Cc3ccc4ccccc4c3)c2s1.O=C([O-])C(F)(F)F,,78%,69%
33.4 nM,82.5 nM,199 nM,CC(C)OC(=O)c1ccc(NC(=O)N[C@@H](Cc2ccc(O)cc2)C(=O)NCC[N+]2(Cc3ccc(Cl)cc3)CCCCC2)cc1,,,
82.2 nM,15 nM,948 nM,CC(C)OC(=O)c1ccc(NC(=O)N[C@@H](Cc2ccc(O)cc2)C(=O)NCC[N+](C)(Cc2ccc3ccccc3c2)Cc2ccc3ccccc3c2)cc1,,,
13.3 nM,832 nM,1900 nM,CC(C)OC(=O)c1ccc(NC(=O)N[C@@H](Cc2ccc(O)cc2)C(=O)N2CCC[C@@H]([N+](C)(C)Cc3ccc(Cl)cc3)C2)cc1,,,
70.4 nM,405 nM,379 nM,CC(C)OC(=O)c1ccc(NC(=O)N[C@@H](Cc2ccc(O)cc2)C(=O)NCC[N+](C)(Cc2ccc(Cl)cc2)Cc2ccc(Cl)cc2)cc1,,,
237 nM,337 nM,> 3300 nM,CC(C)OC(=O)c1ccc(NC(=O)N[C@@H](Cc2ccc(O)cc2)C(=O)NCC[N+](C)(C(C)C)C(C)C)cc1,,,
< 5 nM,860 nM,1350 nM,CC(C)OC(=O)c1ccc(NC(=O)N[C@@H](Cc2ccc(O)cc2)C(=O)N2CC[N+](C)(CCc3ccccc3)CC2)cc1,,,
6.1 nM,13.1 nM,13.1 nM,CC(C)OC(=O)c1ccc(NC(=O)N[C@@H](Cc2ccc(O)cc2)C(=O)NCC[N+](C)(C)C23CC4CC(CC(C4)C2)C3)cc1,,,
< 5 nM,58.8 nM,141 nM,CC(C)OC(=O)c1ccc(NC(=O)N[C@@H](Cc2ccc(O)cc2)C(=O)N2CC[N+](Cc3ccc(Cl)cc3)(CC3CCCCC3)CC2)cc1,,,
223 nM,311 nM,584 nM,CC[N+](CC)(CCNC(=O)[C@H](Cc1ccc(O)cc1)NC(=O)Nc1ccc(C(=O)OC(C)C)cc1)Cc1ccc(Cl)cc1,,,

SMILES,IC50 [1],IC50 [2],IC50 [3],inhibition (INH) (Mus musculus [4]),inhibition (INH) (Mus musculus [5]),inhibition (INH) (Mus musculus [6])
CC(C)OC(=O)c1ccc(NC(=O)N[C@@H](Cc2ccc(O)cc2)C(=O)NCCC[N+](C)(C)Cc2ccc3ccccc3c2)cc1,417 nM,411 nM,734 nM,,,
CC(C)OC(=O)c1ccc(NC(=O)N[C@@H](Cc2ccc(O)cc2)C(=O)NCCC[N+](C)(C)Cc2ccc(Cl)cc2)cc1,197 nM,178 nM,757 nM,,,
